Each structure is given as a SMILES string.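 Growth conditions: 96-well plates. Treatment: test compound, 48 hours, 5 concentrations. Analysis: linear interpolation between bracketing concentrations; unreached endpoints set to highest concentration. At the TGI there is no net growth.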 Where only a bound is given, the exact number is not on record here.

Some test systems named below: SN12C renal; SK-MEL-5 melanoma; NCI-H460 lung; DU-145 prostate; TK-10 renal; MCF7 breast; M14 melanoma; CCRF-CEM leukemia; HCT-15 colon; UACC-62 melanoma; HOP-62 NSCLC; MDA-MB-231 breast; MDA-MB-435; SNB-19 CNS; SW-620 colon; HT29 colon; HL-60(TB) leukemia; SK-MEL-2 melanoma.
Holding throughout (assay): NCI-60 cell line screen, 48 h

As to `CC(=O)Oc1ccc2c(c1)[nH]c1c3ccc(OC(C)=O)cc3oc(=O)c21`, the TGI was above 100 µM with SN12C renal; 68.9 µM with SK-MEL-5 melanoma; above 100 µM in the test with NCI-H460 lung; above 100 µM with DU-145 prostate; above 100 µM in the test with TK-10 renal; 90.4 µM in the test on MCF7 breast. Besides, the TGI in the test with M14 melanoma was above 100 µM; in the test with CCRF-CEM leukemia, 98.8 µM; in the test on HCT-15 colon it was above 100 µM; in the test with UACC-62 melanoma it was above 100 µM; with HOP-62 NSCLC, above 100 µM; with MDA-MB-231 breast, 88.2 µM. The TGI with MDA-MB-435, in the test with SNB-19 CNS, in the test with SW-620 colon and with HT29 colon was above 100 µM each time.
For `CCOC(=O)/C(=C\c1c[nH]c2ccccc12)P(=O)(OCC)OCC`, the TGI was above 100 µM in the test on SN12C renal; above 100 µM in the test on SK-MEL-5 melanoma; 61.9 µM in the test on NCI-H460 lung; above 100 µM in the test on DU-145 prostate; above 100 µM in the test with TK-10 renal; above 100 µM with MCF7 breast. Further, the TGI in the test with M14 melanoma was above 100 µM; with CCRF-CEM leukemia, 66.9 µM; in the test with HCT-15 colon, 72.6 µM; in the test with UACC-62 melanoma, above 100 µM; with HOP-62 NSCLC, above 100 µM; in the test with MDA-MB-231 breast, 68.4 µM. Further, the TGI in the test on HL-60(TB) leukemia is 62 µM; in the test on MDA-MB-435, above 100 µM; with SNB-19 CNS, above 100 µM; in the test with SW-620 colon, above 100 µM; with HT29 colon, 77.5 µM.
For `Cc1cc2c(cc1Cl)SC(NNCCO)=NS2(=O)=O`, the TGI with SK-MEL-5 melanoma, in the test on NCI-H460 lung, with DU-145 prostate, with TK-10 renal, in the test on MCF7 breast and in the test on M14 melanoma was above 100 µM throughout. Besides, the TGI with CCRF-CEM leukemia, in the test with HCT-15 colon, with UACC-62 melanoma, with HOP-62 NSCLC, with MDA-MB-231 breast and in the test on HL-60(TB) leukemia was above 100 µM throughout. In addition, the TGI in the test on SK-MEL-2 melanoma, with MDA-MB-435, in the test with SNB-19 CNS, in the test on SW-620 colon and in the test with HT29 colon was above 100 µM in each case.
Take `C1CSCCSCCSCCSCCS1`: the TGI in the test on SN12C renal, in the test on SK-MEL-5 melanoma, with NCI-H460 lung, in the test with DU-145 prostate, in the test on TK-10 renal and in the test on MCF7 breast was above 100 µM throughout. Besides, the TGI in the test with M14 melanoma, with HCT-15 colon, in the test with UACC-62 melanoma, with HOP-62 NSCLC, in the test on MDA-MB-231 breast and in the test with HL-60(TB) leukemia was above 100 µM in each case. The TGI in the test with SK-MEL-2 melanoma, in the test on MDA-MB-435, with SNB-19 CNS, in the test on SW-620 colon and with HT29 colon was above 100 µM throughout.
As for `CN1C(=O)C(=Cc2ccc(Br)cc2)C(=O)N(C)C1=O`, the TGI in the test with SK-MEL-5 melanoma, with NCI-H460 lung, with DU-145 prostate, in the test with TK-10 renal, in the test on MCF7 breast and with M14 melanoma was above 100 µM throughout. The TGI with CCRF-CEM leukemia, in the test with HCT-15 colon, in the test on UACC-62 melanoma, in the test with HOP-62 NSCLC, with MDA-MB-231 breast and in the test with SK-MEL-2 melanoma was above 100 µM each time. The TGI in the test on MDA-MB-435, in the test with SNB-19 CNS and in the test on SW-620 colon was above 100 µM throughout.
Take `Cc1nc(C)c(N2CCN(Cc3ccccc3)CC2)c(=O)[nH]1`: the TGI in the test with SN12C renal, in the test on SK-MEL-5 melanoma, with NCI-H460 lung, in the test with DU-145 prostate, with TK-10 renal and in the test on MCF7 breast was above 100 µM throughout. Besides, the TGI in the test with M14 melanoma, with CCRF-CEM leukemia, with HCT-15 colon, with UACC-62 melanoma, in the test on HOP-62 NSCLC and with MDA-MB-231 breast was above 100 µM throughout. Also, the TGI in the test on HL-60(TB) leukemia, with MDA-MB-435, in the test on SNB-19 CNS, in the test on SW-620 colon and in the test on HT29 colon was above 100 µM in each case.
With `CCC1(c2ccc(OC)c(OC)c2)CCN(S(=O)(=O)c2ccc(C)cc2)C1` (stereo not drawn), the TGI with SN12C renal, with SK-MEL-5 melanoma, in the test on NCI-H460 lung, in the test with DU-145 prostate, with TK-10 renal and with MCF7 breast was above 100 µM in each case. For the same compound, the TGI in the test with M14 melanoma, with CCRF-CEM leukemia, in the test with HCT-15 colon, in the test with UACC-62 melanoma, with HOP-62 NSCLC and with MDA-MB-231 breast was above 100 µM in each case. Further, the TGI in the test with SK-MEL-2 melanoma, in the test on MDA-MB-435, in the test on SNB-19 CNS, in the test with SW-620 colon and with HT29 colon was above 100 µM each time.
As to `CC(C)(C)OC(=O)N(O)CCCn1cnc2c(NC3CC3)ncnc21`, the TGI in the test with SN12C renal, in the test with SK-MEL-5 melanoma, in the test with NCI-H460 lung, with DU-145 prostate, in the test with TK-10 renal and in the test on MCF7 breast was above 100 µM in each case. For the same compound, the TGI with M14 melanoma, in the test on CCRF-CEM leukemia, in the test on HCT-15 colon, in the test with UACC-62 melanoma, in the test on HOP-62 NSCLC and in the test on MDA-MB-231 breast was above 100 µM in each case. Moreover, the TGI with SK-MEL-2 melanoma, in the test with MDA-MB-435, in the test with SNB-19 CNS, in the test with SW-620 colon and in the test on HT29 colon was above 100 µM throughout.

Source of the values: PubChem BioAssay (NCI).
